Experimental data as given in PMC10691697, “A small molecule exerts selective antiviral activity by targeting the human cytomegalovirus nuclear egress complex” (PLOS Pathogens, 2023).
Residue numbers refer to the chain shown, from its start. Values joined by “and” are separate entries in the source; they are usually repeats but may differ in a detail not shown here. Equal entries are not always repeated.

Assays:
HSV-1 P30-UL42 [1] = target: T1, HSV-1 P30-UL42 (Human herpesvirus 1, UniProt P10226); assay: biochemical; format: binding
T1 construct: containing UL42 residues 1–340; GST (N); glycine-serine linker of the modified pGEX6p plasmid (presence inferred) (N); made in house; host or cells: E. coli (UL42: pLysS BL21)
T1 sequence (P10226 whole entry, looked up): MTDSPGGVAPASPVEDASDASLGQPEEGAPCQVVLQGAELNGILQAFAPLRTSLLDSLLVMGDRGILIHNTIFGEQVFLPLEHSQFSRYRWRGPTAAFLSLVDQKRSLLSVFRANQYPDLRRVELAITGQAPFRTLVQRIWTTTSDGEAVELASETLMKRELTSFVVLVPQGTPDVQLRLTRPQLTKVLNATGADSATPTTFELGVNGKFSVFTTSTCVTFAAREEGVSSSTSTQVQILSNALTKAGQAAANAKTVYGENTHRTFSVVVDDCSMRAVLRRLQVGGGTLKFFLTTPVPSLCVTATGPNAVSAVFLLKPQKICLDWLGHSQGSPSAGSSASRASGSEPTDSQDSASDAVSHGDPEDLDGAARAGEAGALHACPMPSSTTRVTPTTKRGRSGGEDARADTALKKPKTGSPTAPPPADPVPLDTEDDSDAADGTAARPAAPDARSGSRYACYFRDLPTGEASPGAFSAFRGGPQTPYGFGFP

HCMV UL50-UL53 = target: T2, HCMV UL50-UL53 (Human cytomegalovirus, UniProt P16794); assay: biochemical; format: binding; details: for scoring as a hit in the HTRF screen: hit = at least 50 percent inhibition of HTRF signal, ibrutinib up to 50 μM
T2 construct: GST (N, cleaved yes); 13-residue glycine-serine linker […]; made in house; host or cells: E. coli BL21 (DE3) RIPL

HSV-1 P30-UL42 [2] = target: T3, HSV-1 P30-UL42 (Human herpesvirus 1, UniProt P10226); assay: biochemical; format: binding; remark: listed apart in the source
T3 construct: containing UL42 residues 1–340; GST (N); glycine-serine linker of the modified pGEX6p plasmid (presence inferred) (N); made in house; host or cells: E. coli (UL42: pLysS BL21)

[3] = target: T4, Myc-tagged HCMV UL53 (residues 50-292) (human cytomegalovirus (HCMV), UniProt P16794 50-292); assay: AlphaScreen or HTRF; details: both partners purified
T4 construct: source: E. coli BL21 (DE3) RIPL, purified (glutathione-agarose, on-column PreScission digestion, size exclusion chromatography); not shown: GST, N-terminal, cleaved; Myc, N-terminal, kept
T4 sequence: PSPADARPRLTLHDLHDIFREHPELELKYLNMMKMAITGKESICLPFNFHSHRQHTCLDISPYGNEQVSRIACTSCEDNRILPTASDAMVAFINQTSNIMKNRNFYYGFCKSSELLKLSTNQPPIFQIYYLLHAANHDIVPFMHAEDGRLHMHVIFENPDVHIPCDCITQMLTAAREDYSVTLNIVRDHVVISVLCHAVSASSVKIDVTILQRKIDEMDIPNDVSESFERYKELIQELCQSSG

[4] = target: T5, His-tagged HCMV UL50 (residues 1-169) (human cytomegalovirus (HCMV), UniProt P16791 1-169); assay: AlphaScreen or HTRF; details: both partners purified
T5 construct: also called His-UL50; tagged UL50; source: E. coli BL21 (DE3) RIPL, purified (nickel Sepharose, size exclusion chromatography); not shown: His, N-terminal, kept
T5 sequence: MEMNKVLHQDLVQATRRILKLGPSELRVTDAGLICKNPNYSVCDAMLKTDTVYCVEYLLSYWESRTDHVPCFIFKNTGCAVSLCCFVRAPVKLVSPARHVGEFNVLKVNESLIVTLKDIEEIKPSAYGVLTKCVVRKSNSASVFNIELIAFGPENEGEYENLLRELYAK

[5] = target: T6, His-SUMO-tagged HSV-1 UL42 (residues 1-340) (herpes simplex virus 1 (HSV-1), UniProt P10226 1-340); assay: AlphaScreen or HTRF; details: both partners purified
T6 construct: also called His-SUMO-UL42; His-tagged HSV-1 UL42; source: E. coli pLysS BL21, purified as described for the HCMV NEC proteins
T6 sequence: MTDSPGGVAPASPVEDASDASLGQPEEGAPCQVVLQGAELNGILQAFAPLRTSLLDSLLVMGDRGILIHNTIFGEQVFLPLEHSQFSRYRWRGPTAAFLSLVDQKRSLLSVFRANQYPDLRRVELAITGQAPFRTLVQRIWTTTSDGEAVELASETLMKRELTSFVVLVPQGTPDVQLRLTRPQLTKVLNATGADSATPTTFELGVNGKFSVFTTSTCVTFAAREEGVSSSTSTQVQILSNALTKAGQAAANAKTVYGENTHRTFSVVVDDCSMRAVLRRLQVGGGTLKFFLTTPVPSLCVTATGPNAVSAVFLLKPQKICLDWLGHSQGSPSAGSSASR

[6] = LINCS2 well 2, 10 μM in the assay
[7] = LINCS2 well 4, 0.4 μM in the assay
[8] = Selleck well, 50 μM in the assay

Molecule: Untagged P30: untagged C-terminal 36 residues of HSV-1 UL30 (DDVAARLRAAGFGAVGAGATAEETRRMLHRAFDTLA) [reference compound]
- HTRF ratio (HSV-1 P30-UL42 [1]; P30-UL42 + untagged protein, A665nm/A620nm * 10000, single replicates): 26529 and 26670 and 27659
- HTRF ratio, Mean (HSV-1 P30-UL42 [1]; P30-UL42 + untagged protein, triplicate): 26953
- S/B (HSV-1 P30-UL42 [1]; P30-UL42 with untagged protein): 2.4

Molecule: C=CC(=O)N1CCC[C@@H](n2nc(-c3ccc(Oc4ccccc4)cc3)c3c(N)ncnc32)C1 [ibrutinib, reference compound]
- HTRF Channel 2 (620 nm) (HCMV UL50-UL53; LINCS2 well 1, 50 μM in the assay): 5736 and 5840
- HTRF Channel 1 (665 nm) (HCMV UL50-UL53; [6]): 31679
- HTRF Channel 2 (620 nm) (HCMV UL50-UL53; [6]): 5859 and 6111
- HTRF Channel 2 (620 nm) (HCMV UL50-UL53; LINCS2 well 3, 2 μM in the assay): 6125 and 5780
- HTRF Channel 1 (665 nm) (HCMV UL50-UL53; [7]): 31815
- HTRF Channel 2 (620 nm) (HCMV UL50-UL53; [7]): 5791 and 5828
- inhibition in HTRF screen (HCMV UL50-UL53; LINCS wells, 50, 10, 2 and 0.4 μM): Essentially no inhibition
- HTRF Channel 1 (665 nm) (HCMV UL50-UL53; [8]): 7468 and 7529
- HTRF Channel 2 (620 nm) (HCMV UL50-UL53; [8]): 8631 and 9073
- scoring as a hit in the HTRF screen (HCMV UL50-UL53): not registering as a hit

Molecule: CCC(=O)Nc1cccc(Oc2ccnc3[nH]ccc23)c1 [aGK2]
- activity in the HTRF assay for NEC interactions (HCMV UL50-UL53): little, if any activity
- remaining activity at 1.56 µM (HCMV UL50-UL53; WT UL50-UL53, 1.56 μM compound, replicates, read-out: normalized FRET signal relative to control without inhibitor): 95%
- remaining activity at 3.13 µM (HCMV UL50-UL53; WT UL50-UL53, 3.13 μM compound, replicates, read-out: normalized FRET signal relative to control without inhibitor): 95%
- remaining activity at 6.25 µM (HCMV UL50-UL53; WT UL50-UL53, 6.25 μM compound, replicates, read-out: normalized FRET signal relative to control without inhibitor): 92%
- remaining activity at 50 µM (HCMV UL50-UL53; WT UL50-UL53, 50.00 μM compound, replicates, read-out: normalized FRET signal relative to control without inhibitor): 93%
- remaining activity at 25 µM (HCMV UL50-UL53; WT UL50-UL53, […] compound, replicates, read-out: normalized FRET signal relative to control without inhibitor): 94%
- remaining activity at 1.56 µM (HSV-1 P30-UL42 [2]; HSV1 P30-UL42, 1.56 μM compound, replicates, read-out: normalized FRET signal relative to control without inhibitor): 101%
- remaining activity at 3.13 µM (HSV-1 P30-UL42 [2]; HSV1 P30-UL42, 3.13 μM compound, replicates, read-out: normalized FRET signal relative to control without inhibitor): 102%
- remaining activity at 6.25 µM (HSV-1 P30-UL42 [2]; HSV1 P30-UL42, 6.25 μM compound, replicates, read-out: normalized FRET signal relative to control without inhibitor): 99%
- remaining activity at 50 µM (HSV-1 P30-UL42 [2]; HSV1 P30-UL42, 50.00 μM compound, replicates, read-out: normalized FRET signal relative to control without inhibitor): 97%
- remaining activity at 25 µM (HSV-1 P30-UL42 [2]; HSV1 P30-UL42, […] compound, replicates, read-out: normalized FRET signal relative to control without inhibitor): 99%
- inhibition in the HSV-1 P30-UL42 counterscreen assay (HSV-1 P30-UL42 [2]; all concentrations tested (up to 50 μM)): little, if any activity

Molecule: O=C([O-])c1ccccc1-c1c2cc(Br)c(=O)cc-2oc2[c]([Hg+])c([O-])c(Br)cc12.[Na+].[Na+].[OH-] [merbromin, reference compound]
- scoring as a hit in the HTRF screen (HCMV UL50-UL53): scored negative

B1: His-tagged HCMV UL50 (residues 1-169) (domain or fragment)
chain: T5 sequence
notes: also called His-UL50; source: E. coli BL21 (DE3) RIPL, purified (nickel Sepharose, size exclusion chromatography); not shown: His, N-terminal, kept
- Kd [3]: 220 nM and 380 nM

B2: His-tagged HCMV UL50 (residues 1-169) C35N (domain or fragment)
chain: T5 sequence with C35N
notes: source: E. coli BL21 (DE3) RIPL, purified (same methods as His-UL50); not shown: His, N-terminal, kept
- Kd [3]: 110 nM and 190 nM

B3: His-tagged HCMV UL50 (residues 1-169) C54S (domain or fragment)
chain: T5 sequence with C54S
notes: as for B2
- Kd [3]: 140 nM and 340 nM

B4: His-tagged HCMV UL50 (residues 1-169) C79S (domain or fragment)
chain: T5 sequence with C79S
notes: as for B2
- Kd [3]: 230 nM and 450 nM

B5: Myc-tagged HCMV UL53 (residues 50-292) with glycine-serine linker (domain or fragment)
chain: GGGGSGGGGSGGGPSPADARPRLTLHDLHDIFREHPELELKYLNMMKMAITGKESICLPFNFHSHRQHTCLDISPYGNEQVSRIACTSCEDNRILPTASDAMVAFINQTSNIMKNRNFYYGFCKSSELLKLSTNQPPIFQIYYLLHAANHDIVPFMHAEDGRLHMHVIFENPDVHIPCDCITQMLTAAREDYSVTLNIVRDHVVISVLCHAVSASSVKIDVTILQRKIDEMDIPNDVSESFERYKELIQELCQSSG
notes: source: E. coli BL21 (DE3) RIPL, purified (glutathione-agarose, on-column PreScission digestion, size exclusion chromatography); not shown: GST, N-terminal, cleaved; Myc, N-terminal, kept
- HTRF ratio, fold over the background of either tagged subunit alone [4]: ~3 fold

B6: Myc-tagged HSV-1 Pol C-terminal peptide P30 (UL30 residues 1200-1235) (peptide)
chain: GGGGSGGGGSGGGDDVAARLRTAGFGAVGAGATAEETRRMLHRAFDTLA
notes: source: E. coli, expressed and purified as described for Myc-UL53; not shown: Myc, N-terminal, kept
- binding result [5]: binds
